According to US6759212B1, “Cell cycle-regulating proteins” (Chugai Seiyaku Kabushiki Kaisha, priority 1997, dated 2004):

Experiments:
Mv1Lu cells [1] = assay: FACS analysis of DNA content (propidium iodide); type: cell-based, mink; details: 72 hour-induction
Method: (§1) MvlLu cells carrying vector alone, wild-type FLAG-AIM-1 (WT) or FLAG-AIM-1 (K-R) were grown in the presence or absence of doxycycline (tetracycline analog) for 24 hours and then subjected to western blot with anti-FLAG antibody (FIG. 4A). […] In addition, the size of these cells was much larger than normal cells (FIGS. 4Bf and 5D). In these abnormal cells, however, spindle. functions including chromosome disjunction and late anaphase spindle elongation as well as nuclear division appeared unaffected (data not shown). This was further confirmed by flow cytometry (FACS) (FIG. 4C). […] Namely, apocytes appeared because karyokinesis advances but cytokinesis is inhibited.
Cell samples were harvested and fixed with ethanol, stained with propidium iodide for FACS analysis.

Mv1Lu cells [2] = assay: Abnormal cytokinesis: cells having two or more nuclei, tetracycline-inducible expression, Giemsa staining; type: cell-based, mink; details: Mv1Lu, 72 hours
Method: as §1
Then, asynchronous cells transfected with vector alone (a, d), FLAG-AIM-1 (WT) (b, e) or FLAG-AIM-1 (K-R) (c, f) were grown with (a-c) or without (d-f) DOX for 72 hours and stained with Giemsa's solution. Results are shown in FIG. 4B, wherein upper panels are called as a, b and c from left to right, and lower panels are called as d, e and f from left to right.
(2) Abnormal Cytokinesis in Cells Expressing AIM-1 (K-R) Plasmid FLAG-AIM-1 (WT), FLAG-AIM-1 (K-R) or a control plasmid pEF/hygI was cotransfected with a reporter construct RSV-β-galactosidase at a ratio of 10:1 into NRK-49F cells and human diploid fibroblast KD cells (a kind gift of late Dr. Takeo Kakunaga) by Lipofectin method. […]

[3] = test system: human diploid fibroblast KD cells; assay: Abnormal cytokinesis: cells having two or more nuclei after transient transfection; type: cell-based; details: 72 hours after transfection
From the text: (§2) To confirm the generality of this observation, AIM-1 (WT) and AIM-1 (K-R) plasmids were transiently expressed in NRK-49F cells and human diploid fibroblast KD cells and the results were compared with those obtained in a control transfected with vector alone. These constructs were transfected into cell-s with a reporter construct […] to prepare β-galactosidase-expressing plasmids for use as a positive internal control for transfection (Table 1).
(§3) (2) Abnormal Cytokinesis in Cells Expressing AIM-1 (K-R) Plasmid FLAG-AIM-1 (WT), FLAG-AIM-1 (K-R) or a control plasmid pEF/hygI was cotransfected with a reporter construct RSV-β-galactosidase at a ratio of 10:1 into NRK-49F cells and human diploid fibroblast KD cells (a kind gift of late Dr. Takeo Kakunaga) by Lipofectin method. After 24 hours, 1×10^3 cells were seeded per 60 mm dish, and 72 hours after transfection, cells were fixed in 1.25% glutaraldehyde/PBS and stained by a method described in literature (Shu et al., J.C.S. 108:2955-62, 1995) to observe expression of β-galactosidase. MvlLu cells were also tested under the conditions described in (1) B above.
(§4) 1. The figures in the table mean the percentage of cells having two or more nuclei to β-galactosidase positive cells for NRK-49F cells and KD cells or the percentage of cells having two or more nuclei to the total number of cells for MvlLu cells. […]

Mv1Lu cells [4] = assay: Growth for 2 weeks with or without DOX, Giemsa staining; type: cell-based, mink; details: grown 2 weeks with or without doxycycline
Method: The nuclei of these AIM-1 (K-R)-expressing cells divided 3 to 4 times during 4 to 5 days, resulting in more than 10 nuclei per cell (FIG. 5D).
Mv1Lu cells transfected with FLAG-AIM-1 (WT) or FLAG-AIM-1 (K-R) were grown with or without DOX for 2 weeks and stained with Giemsa's solution.

NRK-49F cells = assay: Abnormal cytokinesis: cells having two or more nuclei after transient transfection; type: cell-based, rat; details: 72 hours after transfection
From the text: as §2, §3, §4

AIM-1 (WT): wild-type rat AIM-1 protein kinase labeled with FLAG at the N-terminus, expressed from plasmid pUHD10-3 or pEF/hygI
cell population with 4N or 8N DNA / cell cycle pattern (FACS) (Mv1Lu cells [1]): normal cell cycle pattern
percentage of cells having two or more nuclei to the total number of cells (Mv1Lu cells [2]; DOX(+) (not induced)): 0.9%
percentage of cells having two or more nuclei to the total number of cells (Mv1Lu cells [2]; DOX(−) (induced)): 2.8%
percentage of cells having two or more nuclei to β-galactosidase positive cells [3]: 4.8%
effect on growth potency (mitotic inhibition) (Mv1Lu cells [4]): not
percentage of cells having two or more nuclei to β-galactosidase positive cells (NRK-49F cells): 7.8%
